{"source": "patent US20040235049A1", "about": "“Device for presentation of polypeptides able to be used as a chip for miniaturised detection of molecules” (priority 2001, published 2004)", "system": "antibodies of positive and negative sera (HCV)", "test": "Ketone-functionalised (transaminated) peptide on semicarbazide slides tested with sera", "format": "binding, human", "conditions": "16 spots, peptide 10^−4 M", "method": "The slides are then incubated in the presence of 100 μl of serum from patients diluted to 1/50th in the dilution buffer (PBS+2.5% of powdered semi-skimmed milk+0.5% of Tween 20) under a glass cover slip (24×60 mm). […] 4 successive washes are then effected for 3 minutes in PBS solution with 0.05% added Tween 20.\nThe reaction of the antibodies of patients with the polypeptides attached to the slide is detected by the binding onto these of fluorescent anti-human IgG antibodies. 100 μl of solution of anti-human IgG-A-M antibodies labelled with rhodamine (TRITC) (Jackson ImmunoResearch Laboratories, Baltimore, US) diluted to 1/100th in the dilution buffer (PBS+2.5% of powdered semi-skimmed milk+0.5% of Tween 20) are then deposited onto each slide. Each slide is then covered with a cover slip (24×60 mm) and left to incubate for 1 hours at 37° C. under a moist atmosphere. A series of 4 successive washes in PBS solution with 0.05% of added Tween 20 is carried out.\nThe fluorescence emitted is then detected using a slide scanner (L35/PMT 50, Affymetrix 418 Chip Scanner, MWG).\nThe 2 peptides HCVpc21-Met (non-transaminated) and pc21-TA (transaminated) and also the peptide HCVpc21-2 (described in Example 3) were attached to semicarbazide slides at the rate of 16 spots of each peptide per slide.\nEach peptide was deposited at the concentration of 10^−4 M.\nThe slides were incubated in the presence of 4 positive sera and 2 negative sera.", "data": [{"substance": "H-MTNRRPQDVKFPGGGQIVGGVYLLPRRGPRLG-NH2 [pc21-Met, non-transaminated control peptide]", "values": [{"measurement": "Mean Fluorescence", "setting": "Serum 41, ELISA o.d. 1.4", "value": 960}, {"measurement": "Mean Fluorescence", "setting": "Serum 43, ELISA o.d. 1.7", "value": 2810}, {"measurement": "Mean Fluorescence", "setting": "Serum 45, ELISA o.d. 0.7", "value": 356}, {"measurement": "Mean Fluorescence", "setting": "Serum 48, negative", "value": 59}, {"measurement": "Mean Fluorescence", "setting": "Serum 53, ELISA o.d. 2.7", "value": 7741}, {"measurement": "Mean Fluorescence", "setting": "Serum 55, negative", "value": 55}]}]}
